For six cell lines, relative viability results are on record in the supplement of paper PMC10307832.

Test in all cases: relative viability (nuclei count vs DMSO), 5 days (fraction); higher = more cells survive
Compound in assay [1]: CN1C=C(C2=CC=CC=C21)/C=C\3/C4=C(C=CC=N4)NC3=O + CCNC(=O)c1noc(-c2cc(C(C)C)c(O)cc2O)c1-c1ccc(CN2CCOCC2)cc1 [Luminespib] (partner 0.01 µM)
An outline of the steps: (§1)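 Relative viability was taken as the ratio of nuclei in treated wells to nuclei in vehicle wells. Lung cancer cell lines in 1536-well plates received compounds by pin tool one day after seeding, either one drug alone or a fixed anchor-drug dose plus five library-drug doses (not always all listed) in √10 steps. Nuclei were counted on 4× images after 5 days of treatment, and values are medians of duplicate plates.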

Compound in assay [2]: CC(=O)Nc1cccc(-n2c(=O)n(C3CC3)c(=O)c3c(Nc4ccc(I)cc4F)n(C)c(=O)c(C)c32)c1 [Trametinib] + Nc1nc2[nH]cc(CCc3ccc(C(=O)N[C@@H](CCC(=O)O)C(=O)O)cc3)c2c(=O)[nH]1 [Pemetrexed] (partner 0.2 µM)
Summed up:
as §1

Compound in assay [3]: CC(=O)Nc1cccc(-n2c(=O)n(C3CC3)c(=O)c3c(Nc4ccc(I)cc4F)n(C)c(=O)c(C)c32)c1 [Trametinib] + CC(=O)c1c(C)c2cnc(Nc3ccc(N4CCNCC4)cn3)nc2n(C2CCCC2)c1=O [Palbociclib] (partner 0.5 µM)
Summed up: as §1

Compound in assay [4]: CC(=O)Nc1cccc(-n2c(=O)n(C3CC3)c(=O)c3c(Nc4ccc(I)cc4F)n(C)c(=O)c(C)c32)c1 [Trametinib] + CC(C)C[C@H](NC(=O)[C@H](Cc1ccccc1)NC(=O)c1cnccn1)B(O)O [Bortezomib] (partner 0.002 µM)
Summed up: as §1

As to COR-L23, the relative viability in assay [1] (first compound 0.02 µM) is 0.623; in assay [1] (first compound 0.06325 µM), 0.632; in assay [1] (first compound 0.2 µM), 0.702; in assay [1] (first compound 0.6325 µM), 0.699; in assay [1] (first compound 2 µM), 0.789; in assay [2] (first compound 0.0025 µM), 0.192. The relative viability in assay [2] (first compound 0.007906 µM) was found to be 0.211; in assay [2] (first compound 0.025 µM), 0.23; in assay [2] (first compound 0.07906 µM) it was 0.214; in assay [2] (first compound 0.25 µM), 0.209; in assay [3] (first compound 0.0025 µM), 0.317; in assay [3] (first compound 0.007906 µM), 0.246. Also, the relative viability was determined as 0.191 in assay [3] (first compound 0.025 µM); 0.143 in assay [3] (first compound 0.07906 µM); 0.14 in assay [3] (first compound 0.25 µM); 0.982 in assay [4] (first compound 0.0025 µM); 1 in assay [4] (first compound 0.007906 µM); 1.02 in assay [4] (first compound 0.025 µM). Also, the relative viability is 0.935 in assay [4] (first compound 0.07906 µM) and 0.309 in assay [4] (first compound 0.25 µM).

For the cell line EMC-BAC-2, the relative viability in assay [1] (first compound 0.02 µM) worked out at 1.19; in assay [1] (first compound 0.06325 µM), 1.18; in assay [1] (first compound 0.2 µM) it was 1.29; in assay [1] (first compound 0.6325 µM) it was 1.17; in assay [1] (first compound 2 µM) it was 1.19; in assay [2] (first compound 0.0025 µM), 0.547. Further, the relative viability turned out to be 0.489 in assay [2] (first compound 0.007906 µM); 0.572 in assay [2] (first compound 0.025 µM); 0.544 in assay [2] (first compound 0.07906 µM); 0.56 in assay [2] (first compound 0.25 µM); 0.581 in assay [3] (first compound 0.0025 µM); 0.555 in assay [3] (first compound 0.007906 µM). The relative viability in assay [3] (first compound 0.025 µM) was determined as 0.495; in assay [3] (first compound 0.07906 µM), 0.502; in assay [3] (first compound 0.25 µM), 0.357; in assay [4] (first compound 0.0025 µM), 1.05; in assay [4] (first compound 0.007906 µM) it was 0.99; in assay [4] (first compound 0.025 µM), 0.865. Besides, the relative viability was 1 in assay [4] (first compound 0.07906 µM) and 0.859 in assay [4] (first compound 0.25 µM).

In the case of NCI-H1355, the relative viability in assay [1] (first compound 0.02 µM) was determined as 0.65; in assay [1] (first compound 0.06325 µM), 0.623; in assay [1] (first compound 0.2 µM), 0.669; in assay [1] (first compound 0.6325 µM) it was 0.533; in assay [1] (first compound 2 µM), 0.629; in assay [2] (first compound 0.0025 µM), 1.03. Further, the relative viability in assay [2] (first compound 0.007906 µM) was 0.946; in assay [2] (first compound 0.025 µM), 0.516; in assay [2] (first compound 0.07906 µM) it was 0.717; in assay [2] (first compound 0.25 µM), 0.615; in assay [3] (first compound 0.0025 µM) it was 0.353; in assay [3] (first compound 0.007906 µM), 0.321. The relative viability came out at 0.217 in assay [3] (first compound 0.025 µM); 0.225 in assay [3] (first compound 0.07906 µM); 0.224 in assay [3] (first compound 0.25 µM); 0.981 in assay [4] (first compound 0.0025 µM); 1.04 in assay [4] (first compound 0.007906 µM); 0.554 in assay [4] (first compound 0.025 µM). For the same cell line, the results for the relative viability in assay [4] (first compound 0.07906 µM) and in assay [4] (first compound 0.25 µM) were 0.847 and 0.266, respectively.

On to NCI-H1792, for which the relative viability was 0.447 in assay [1] (first compound 0.02 µM); 0.447 in assay [1] (first compound 0.06325 µM); 0.413 in assay [1] (first compound 0.6325 µM); 0.643 in assay [1] (first compound 2 µM); 0.751 in assay [2] (first compound 0.0025 µM); 0.645 in assay [2] (first compound 0.007906 µM). Also, the relative viability in assay [2] (first compound 0.025 µM) turned out to be 0.363; in assay [2] (first compound 0.07906 µM), 0.328; in assay [2] (first compound 0.25 µM), 0.154; in assay [3] (first compound 0.0025 µM) it was 0.6; in assay [3] (first compound 0.007906 µM) it was 0.51; in assay [3] (first compound 0.025 µM) it was 0.49. In addition, the relative viability worked out at 0.382 in assay [3] (first compound 0.07906 µM); 0.303 in assay [3] (first compound 0.25 µM); 0.971 in assay [4] (first compound 0.0025 µM); 0.85 in assay [4] (first compound 0.007906 µM); 0.647 in assay [4] (first compound 0.025 µM); 0.597 in assay [4] (first compound 0.07906 µM). The relative viability in assay [4] (first compound 0.25 µM) was found to be 0.455.

For the cell line HOP-62, the relative viability was 0.783 in assay [1] (first compound 0.02 µM); 0.986 in assay [1] (first compound 0.06325 µM); 0.802 in assay [1] (first compound 0.2 µM); 0.946 in assay [1] (first compound 0.6325 µM); 0.957 in assay [1] (first compound 2 µM); 0.407 in assay [2] (first compound 0.0025 µM). Moreover, the relative viability in assay [2] (first compound 0.007906 µM) was 0.31; in assay [2] (first compound 0.025 µM), 0.345; in assay [2] (first compound 0.07906 µM), 0.308; in assay [2] (first compound 0.25 µM), 0.183; in assay [3] (first compound 0.0025 µM) it was 0.505; in assay [3] (first compound 0.007906 µM), 0.444. In addition, the relative viability in assay [3] (first compound 0.025 µM) was 0.397; in assay [3] (first compound 0.07906 µM), 0.231; in assay [3] (first compound 0.25 µM) it was 0.158; in assay [4] (first compound 0.0025 µM), 0.776; in assay [4] (first compound 0.007906 µM), 0.956; in assay [4] (first compound 0.025 µM) it was 0.425. Moreover, the relative viability was determined as 0.439 in assay [4] (first compound 0.07906 µM) and 0.186 in assay [4] (first compound 0.25 µM).

Take NCI-H2009: the relative viability turned out to be 0.997 in assay [1] (first compound 0.02 µM); 1.03 in assay [1] (first compound 0.06325 µM); 1.05 in assay [1] (first compound 0.2 µM); 1.02 in assay [1] (first compound 0.6325 µM); 1.09 in assay [1] (first compound 2 µM); 1.06 in assay [2] (first compound 0.0025 µM). Further, the relative viability in assay [2] (first compound 0.007906 µM) was determined as 0.794; in assay [2] (first compound 0.025 µM) it was 0.499; in assay [2] (first compound 0.07906 µM), 0.368; in assay [2] (first compound 0.25 µM) it was 0.37; in assay [3] (first compound 0.0025 µM), 0.138; in assay [3] (first compound 0.007906 µM) it was 0.135. The relative viability in assay [3] (first compound 0.025 µM) worked out at 0.109; in assay [3] (first compound 0.07906 µM), 0.135; in assay [3] (first compound 0.25 µM), 0.125; in assay [4] (first compound 0.0025 µM) it was 0.929; in assay [4] (first compound 0.007906 µM), 0.67; in assay [4] (first compound 0.025 µM), 0.3. For the same cell line, the relative viability was found to be 0.332 in assay [4] (first compound 0.07906 µM) and 0.195 in assay [4] (first compound 0.25 µM).
